The text below walks through data of patent US20100292289A1 (priority 2007, published 2010).

Molecules are shown by their SMILES. Where two headings read alike, the source gives them in different places.

In series [1] the target is T1, CB1 receptor (Homo sapiens, UniProt P21554). Briefly: FLIPR calcium flux assay, agonist format, CB1. The format is cell-based. Particulars: Emax of reference agonist CP-55,940 as 100%; for % Activation Agonist CB1: 1 μM. The procedure: (§1) A FLIPR assay was conducted to monitor agonist and antagonist selectivity for compounds of the invention against the CBI and GLP-1 receptors. Percentage activation and percentage inhibition values were determined for each compound on each of the GPCRs listed above. Agonist selectivity was determined upon initial addition of compounds followed by 10 minute incubation at 25° C. Following compound incubation, reference agonists were added at EC80 to determine percentage inhibition.
T1 sequence (P21554 whole entry): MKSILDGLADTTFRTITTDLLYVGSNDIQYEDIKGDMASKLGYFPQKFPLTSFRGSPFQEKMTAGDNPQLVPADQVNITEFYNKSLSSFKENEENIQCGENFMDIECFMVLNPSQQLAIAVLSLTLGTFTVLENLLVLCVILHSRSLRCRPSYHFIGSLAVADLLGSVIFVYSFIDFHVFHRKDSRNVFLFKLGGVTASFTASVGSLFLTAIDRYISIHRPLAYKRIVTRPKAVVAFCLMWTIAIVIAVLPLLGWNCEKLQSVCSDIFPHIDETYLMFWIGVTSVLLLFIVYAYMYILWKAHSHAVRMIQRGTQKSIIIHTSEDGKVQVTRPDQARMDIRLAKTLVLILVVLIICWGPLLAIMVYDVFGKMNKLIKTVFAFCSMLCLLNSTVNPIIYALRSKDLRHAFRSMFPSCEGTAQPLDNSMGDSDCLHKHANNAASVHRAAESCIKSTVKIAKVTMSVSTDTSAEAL
(§2) Agonist percentage activation determinations were obtained by assaying sample compounds and referencing the Emax control for each of the GPCRs profiled. Antagonist percentage inhibition determinations were obtained by assaying sample compounds and referencing the control EC80 wells for each of the GPCRs profiled. The protocol design is as follows:
(§3) Unless specified otherwise, all sample compounds were diluted in 100% anhydrous DMSO including all serial dilutions. Occasionally sample compounds were provided in a different solvent, in this case all master stock dilutions were performed in the specified diluent. All control wells contained identical solvent final concentrations as sample compound wells.
(§4) Sample compounds were transferred from a master stock solution into a daughter plate that was used in the assay. Each sample compound was diluted into assay buffer (1×HBSS with 20 mM HEPES) at an appropriate concentration to obtain final concentrations.
(§5) All sample compounds were plated at 1 μM in duplicate for assaying against all GPCRs. Reference agonists were handled as mentioned above serving as assay control. These reference agonists were handled as described above for both EMax and EC80 control wells. Assay was read for 90 seconds using the FLIPRTETRA. (This assay run added sample compounds and reference agonist to respective rows.) At the completion of the first “Single Addition” assay run, assay plate was removed from the FLIPRTetra and placed at 25° C. for 10 minutes.
(§6) All plates were subjected to appropriate baseline corrections. Once baseline corrections were processed, maximum fluorescence values were exported and data manipulated to calculate percentage activation, percentage inhibition, Z′, EC50, and IC50. Percentage activation data was calculated using Emax as 100% control. Percentage inhibition was calculated using EC80 as 0% inhibition.

The target of series [2] is T2, GLP-1 receptor (Homo sapiens, UniProt P43220). Briefly: FLIPR calcium flux assay, agonist format, GLP-1. Particulars: Emax of reference ligand Glucagon as 100%; for % Activation Agonist GLP-1: 1 μM. In kind it is cell-based. The procedure: as §1, §2, §3, §4, §5, §6
T2 sequence (P43220 24-463): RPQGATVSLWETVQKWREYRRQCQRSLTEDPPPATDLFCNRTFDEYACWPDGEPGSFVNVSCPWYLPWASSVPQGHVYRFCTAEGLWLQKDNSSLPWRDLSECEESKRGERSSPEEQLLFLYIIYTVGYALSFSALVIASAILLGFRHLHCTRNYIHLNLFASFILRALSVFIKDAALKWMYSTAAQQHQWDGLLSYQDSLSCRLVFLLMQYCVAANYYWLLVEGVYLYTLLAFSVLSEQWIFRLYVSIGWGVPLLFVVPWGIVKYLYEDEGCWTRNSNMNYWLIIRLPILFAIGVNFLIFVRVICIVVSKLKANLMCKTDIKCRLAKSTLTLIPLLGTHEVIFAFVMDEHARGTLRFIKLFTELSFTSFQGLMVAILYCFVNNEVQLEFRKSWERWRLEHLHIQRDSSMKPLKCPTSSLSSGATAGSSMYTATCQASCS
Background: A change in cytosolic calcium serves as a functional read-out for many receptors and channels.

For series [3], the target named is T2, GLP-1 receptor. Nature of the series: FLIPR calcium flux assay, antagonist format, GLP-1. The format is cell-based. Particulars: 1 μM, reference ligand Glucagon at EC80 as 0% inhibition; for inhibition at 1 µM: read-out: % Inhibition Antagonist GLP-1. The procedure:
as §1, §2, §3, §4
(§7) Using the EC50 values determined previously, stimulated all pre-incubated sample compound and reference antagonist (if applicable) wells with EC80 of reference agonist. Read for 90 seconds using the FLIPRTETRA. (This assay added reference agonist to respective wells—then fluorescence measurements were collected to calculate percentage inhibition.)
as §6

Series [4] deals with non-insulin dependent diabetic mellitus (NIDDM) male mice (C57BL/KsJ-db/db Jcl). Nature of the series: In vivo analysis in the db/db mouse (serum insulin, serum glucose, weight). Particulars: for percentage increase in insulin levels: FIG. 1; for percentage decrease in glucose levels: FIG. 2; for percentage decrease in weight: FIG. 3. The procedure: […] All animals were allowed free access to normal laboratory chow and water.
Serum glucose and insulin levels were determined by Enzymatic Method (Mutaratase-GOD) and ELISA (mouse insulin assay kit) from orbital sinus blood samples obtained before (pretreatment) and 90 minutes after the last vehicle and/or test substance administration (postreatment) and percent change was determined.

The target of series [5] is T1, CB1 receptor. Nature of the series: FLIPR calcium flux assay, antagonist format, CB1. Particulars: reference agonist CP-55,940 at EC80 as 0% inhibition; for % Inhibition Antagonist CB1: 1 μM. In kind it is cell-based. The procedure: as §1, §2, §3, §4, §7, §6
The nature of another series: in vivo. Further details: species or system Sprague-Dawley rats. Particulars: rat; for bioavailability: male, Sprague-Dawley, po, 20 mg/kg; for half-life: male Sprague-Dawley rats. The procedure:
The pharmacokinetics of compounds 4a, 6a, and 12 was evaluated in male Sprague-Dawley rats (n=3) following single intravenous (i.v., 1 mg/kg) or oral (p.o., 20 mg/kg) doses.

Where [6] appears, read: 200 mg/kg oral gavage once daily for three days.
[7] abbreviates: iv, single i.v. dose 1 mg/kg, read-out: t1/2 (i.v., hr) (converted).
[8] abbreviates: single oral dose 20 mg/kg, read-out: t1/2 (p.o., hr) (converted).

Consider `CC(C)Cc1ccc([C@H](C)C(=O)N(C)CC[C@H](Oc2ccc(C(F)(F)F)cc2)c2ccccc2)cc1` [Compound 12b], for which the values for the activation at 1 µM on CB1 receptor [1] and on GLP-1 receptor [2] were 8.3% and 24.5%, respectively. In addition, the inhibition (in general, the change of the read-out against control, counted positive when it falls) at 1 µM is 5.9% on GLP-1 receptor [3] and 1.6% at CB1 receptor [5]. The “percentage increase in insulin levels” value in series [4] (100 mg/kg oral gavage once daily for three days) is on record as “significant increase”; in series [4] (setting [6]), “significant increases”. The “percentage decrease in glucose levels” value in series [4] (setting [6]) is “significant decreases”. In series [4] (setting [6]), the “percentage decrease in weight” value is recorded as “significant decreases”.
On to `CC(C)Cc1ccc([C@H](C)C(=O)N(C)CCC(Oc2ccc(C(F)(F)F)cc2)c2ccccc2)cc1` (some centres unmarked) [Compound 12], for which the results for the activation at 1 µM at CB1 receptor [1] and on GLP-1 receptor [2] were 4.1% and 44.6%, respectively. The bioavailability – broadly, dose-corrected exposure relative to a reference, in per cent – in the series “in vivo” was determined as 6.5%. The half-life in the series “in vivo” (setting [7]) was 1.7 h; in “in vivo” (setting [8]), 1.4 h. Also, the results for the inhibition at 1 µM at GLP-1 receptor [3] and on CB1 receptor [5] were -14.9% and 3.2%, respectively.
Take `CC(C)Cc1ccc([C@H](C)C(=O)NCC[C@@H](Oc2ccc(C(F)(F)F)cc2)c2ccccc2)cc1` [Compound 4a]: the activation at 1 µM amounted to 3.2% at CB1 receptor [1] and 39.9% at GLP-1 receptor [2]. The molecule further returned a bioavailability in the series “in vivo” of 5.1%. The half-life in “in vivo” (setting [7]) was 0.6 h; in the series “in vivo” (setting [8]), 1 h. Further, the inhibition at 1 µM was -21.8% at GLP-1 receptor [3] and 7.7% at CB1 receptor [5].
Regarding `CC(C)Cc1ccc([C@H](C)C(=O)N(C)CC[C@@H](Oc2ccc(C(F)(F)F)cc2)c2ccccc2)cc1` [Compound 12a], the activation at 1 µM at CB1 receptor [1] was 3.6%. Moreover, the activation at 1 µM at GLP-1 receptor [2] is 7.6%. Moreover, the inhibition at 1 µM on GLP-1 receptor [3] is 4.5%. Also, in series [4] (setting [6]), the “percentage increase in insulin levels” value was “significant increases”, the “percentage decrease in glucose levels” value was “significant decreases” and the “percentage decrease in weight” value was “significant decreases”. Moreover, the inhibition at 1 µM at CB1 receptor [5] was 52.2%.
For the molecule `CCc1ccc(C(C)C(=O)N(C)CC[C@H](Oc2ccc(C(F)(F)F)cc2)c2ccccc2)cc1` (some centres unmarked) [Compound 34b], the activation at 1 µM on CB1 receptor [1] is -1.9%; on GLP-1 receptor [2], 0.2%. Moreover, the inhibition at 1 µM at GLP-1 receptor [3] turned out to be 1.6%; on CB1 receptor [5], 76.4%.
Take `C[C@H](C(=O)NCC[C@@H](Oc1ccc(C(F)(F)F)cc1)c1ccccc1)c1cccc(C(=O)c2ccccc2)c1` [Compound 6a]: the activation at 1 µM turned out to be 4.2% at CB1 receptor [1] and 38.6% at GLP-1 receptor [2]. Besides, the bioavailability in the series “in vivo” was 14.8%. The half-life in “in vivo” (setting [7]) is 1.4 h; in “in vivo” (setting [8]) it was 2.1 h. Moreover, the values for the inhibition at 1 µM on GLP-1 receptor [3] and at CB1 receptor [5] were -7.2% and 77.9%, respectively. For the same molecule, the “percentage increase in insulin levels” value in series [4] (setting [6]) was “significant increases”. In addition, the “percentage decrease in glucose levels” value in series [4] (setting [6]) was “significant decreases”. Besides, in series [4] (setting [6]), the “percentage decrease in weight” value is recorded as “significant decreases”.
Consider `CN(Cc1ccccc1)C1CCN(C(C(=O)NCCOc2ccc(C(F)(F)F)cc2)c2nc(-c3ccc(C(F)(F)F)cc3)no2)CC1` (centres unmarked) [Compound 24], for which the “% Activation Agonist CB1” value at CB1 receptor [1] came to 1.6%. Also, the “% Activation Agonist GLP-1” value on GLP-1 receptor [2] is on record as 5.9%. Further, the “% Inhibition Antagonist GLP-1” value on GLP-1 receptor [3] was −1.6%. For the same molecule, on CB1 receptor [5], the “% Inhibition Antagonist CB1” value came out at 4.6%.
In the same order, the values of `CC(C)Cc1ccc(C2(C(=O)N(C)CC[C@H](Oc3ccc(C(F)(F)F)cc3)c3ccccc3)CCC2)cc1` [Compound 30b] are −0.8%, −3.4%, 9.7% and 48.3%.
For `CN(C)C(=N)N=C(N)N` [metformin, reference compound], in series [4] (300 mg/kg oral), the “percentage increase in insulin levels” value is given as “does not show an increase”, the “percentage decrease in glucose levels” value is on record as “significant decrease” and the “percentage decrease in weight” value was “does not show a decrease”.
Consider `CC(C(=O)N(C)CC[C@@H](Oc1ccc(C(F)(F)F)cc1)c1ccccc1)c1ccc(C(F)(F)F)cc1` (some centres unmarked) [Compound 33a], for which the “% Activation Agonist CB1” value at CB1 receptor [1] was −0.3%. Besides, the “% Activation Agonist GLP-1” value on GLP-1 receptor [2] is listed as 0.9%. Also, the “% Inhibition Antagonist GLP-1” value on GLP-1 receptor [3] is on record as 11.4%. The “% Inhibition Antagonist CB1” value at CB1 receptor [5] turned out to be 90.7%.
On to `C[C@H](C(=O)N(C)CCC(Oc1ccc(C(F)(F)F)cc1)c1ccccc1)c1cccc(C(=O)c2ccccc2)c1` (some centres unmarked) [Compound 14], for which the activation at 1 µM was 1.2% at CB1 receptor [1] and -2.4% at GLP-1 receptor [2]. The results for the inhibition at 1 µM on GLP-1 receptor [3] and on CB1 receptor [5] were 17.2% and 56.6%, respectively.
